Results from patent US20090130229A1, “Antitumor uses of compound” (Cell Therapeutics, Inc., priority 2002, published 2009).

What was measured:
[1] = target: T1, Ret/MEN2B(M918T) (Homo sapiens, UniProt P07949, M918T); experiment: Ret autophosphorylation and expression in MZ-CRC-1 cells (Western blotting); type: cell-based; conditions: 24 h
T1 construct: endogenous in cells; host or cells: MZ-CRC-1 (human medullary thyroid carcinoma)
Experimental: FIG. 2. Effects of Cpd1 on human MTC cell lines harboring MEN2-associated RET mutants. A) Inhibition of Ret autophosphorylation. TT and MZ-CRC-1 cells, expressing respectively RET/MEN2A(C634W) and RET/MEN2B(M918T), were treated with the indicated concentrations of Cpd1, for 24 h. Control cells (C) received the solvent. Whole cell extracts were processed for Western blotting and probed with anti-pTyr and anti-Ret antibodies. […] B) Antiproliferative effect. TT and MZ-CRC-1 cells were treated with increasing concentrations of Cpd 1 for 7 days and then counted with a Coulter Counter.
(§1) The following human medullary thyroid carcinoma (MTC) cell lines were used in this study. The TT cell line derived from a MEN2A-associated MTC characterized by expression of the RET oncogene carrying the mutation C634W. […]
(§2) For whole-cell extract preparation, cells were lysed in sodium dodecyl sulfate (SDS) sample buffer (62.5 mM Tris-HCl (pH 6.8), 2% SDS) with 1 mM PMSF, 10 μg/ml pepstatin, 12.5 μg/ml leupeptin, 100 KIU aprotinin, 1 mM sodium orthovanadate, 1 mM sodium molybdate. Protein concentration was determined in appropriately diluted aliquots by the bicinchionic acid (BCA) method (Pierce, Rockford, Ill.), then samples were adjusted to a final concentration of 10% glycerol, 5% β-mercaptoethanol, 0.001% bromophenol blue. […]

[2] = target: T2, Ret/MEN2A(C634R) (Homo sapiens, UniProt P07949, C634R); experiment: Ret/MEN2A(C634R) autophosphorylation and expression in NIH3T3 transfectants (Western blotting); type: cell-based; conditions: 10 μM
T2 construct: expressed in transfected cells; host or cells: NIH3T3 (mouse fibroblasts)
Experimental: FIG. 1. Effects of Cpd 1 on NIH3T3^MEN2A(C634R) transfectants expressing exogenous RET/MEN2A(C634R). […] Cells were exposed to 6 μM Cpd1 for 24 h and then photographed under a phase-contrast microscope (original magnification ×100). B) Antiproliferative effect. NIH3T3^MEN2A(C634R) cells and the parental NIH3T3 cells were treated with increasing concentrations of the drug for 72 h and then counted with a Coulter Counter. […] C) Inhibition of Ret/MEN2A(C634R) autophosphorylation and expression. Cells were treated with solvent (−) or 10 μM Cpd1 (+), for the indicated times. Whole cell-lysates were prepared and subjected to SDS-PAGE and Western blotting with anti-pTyr antibody. After stripping, the filter was reblotted with anti-Ret antibody. Arrows indicate the partial and fully glycosilated forms of the Ret/MEN2A receptor.
The following human medullary thyroid carcinoma (MTC) cell lines were used in this study. The TT cell line derived from a MEN2A-associated MTC characterized by expression of the RET oncogene carrying the mutation C634W. The MZ-CRC-1 cell line derived from MEN2B-associated MTC characterized by expression of the RET oncogene carrying the mutation M918T. TT cells were cultivated in Ham's F12 medium (BioWhittaker, Verviers, Belgium) supplemented with 15% fetal calf serum (FCS) (Life Technologies, Inc., Gaithersburg, Md.) whereas MZ-CRC-1 cells were grown in Dulbecco's modified Eagle's medium (DMEM) (BioWhittaker) supplemented with 10% FCS. […]
as §2

[3] = target: T3, FGF-R3 mutant Y373C (Homo sapiens, UniProt P22607, Y373C); experiment: FGF-R3 (Y373C) autophosphorylation and expression in NIH3T3 transfectants; type: cell-based; conditions: 72 h
T3 construct: expressed in transfected cells; host or cells: NIH3T3 (mouse fibroblasts)
Experimental: FIG. 6. Inhibition of autophosphorylation and expression of FGF-R1 and FGF-R3 receptors in whole cells by Cpd1. A): Swiss3T3 cells were serum starved for 24 h and then treated with Cpd1 at the indicated concentrations, for 18 h. After stimulation with 100 ng/ml FGF for 5 min, whole cell lysates were prepared and subjected to Western blotting with anti-pTyr or anti-FGF-R1. Protein loading by anti-actin blot is shown. B): NIH3T3 transformed by the FGF-R3 mutant Y373C were treated with the indicated concentrations, for 72 h. Cell extracts were immunoprecipitated with anti-FGF-R3 and then subjected to Western blotting with anti p-Tyr or anti-FGF-R3.
as §1, with “C634W. The MZ-CRC-1 cell line derived from MEN2B-associated MTC characterized by expression of the RET oncogene carrying the mutation M918T.” for “C634W.”
For immunoprecipitation experiments, cells were treated with Cpd1 or solvent for the indicated times. […] Protein concentration was determined by the BCA reagent (Pierce). […]

[4] = test system: NIH3T3 cells transformed with the RET/PTC1 oncogene; conditions: cited from earlier work

T2 sequence (P07949 29-1072 isoform P07949-2 C634R limits assumed): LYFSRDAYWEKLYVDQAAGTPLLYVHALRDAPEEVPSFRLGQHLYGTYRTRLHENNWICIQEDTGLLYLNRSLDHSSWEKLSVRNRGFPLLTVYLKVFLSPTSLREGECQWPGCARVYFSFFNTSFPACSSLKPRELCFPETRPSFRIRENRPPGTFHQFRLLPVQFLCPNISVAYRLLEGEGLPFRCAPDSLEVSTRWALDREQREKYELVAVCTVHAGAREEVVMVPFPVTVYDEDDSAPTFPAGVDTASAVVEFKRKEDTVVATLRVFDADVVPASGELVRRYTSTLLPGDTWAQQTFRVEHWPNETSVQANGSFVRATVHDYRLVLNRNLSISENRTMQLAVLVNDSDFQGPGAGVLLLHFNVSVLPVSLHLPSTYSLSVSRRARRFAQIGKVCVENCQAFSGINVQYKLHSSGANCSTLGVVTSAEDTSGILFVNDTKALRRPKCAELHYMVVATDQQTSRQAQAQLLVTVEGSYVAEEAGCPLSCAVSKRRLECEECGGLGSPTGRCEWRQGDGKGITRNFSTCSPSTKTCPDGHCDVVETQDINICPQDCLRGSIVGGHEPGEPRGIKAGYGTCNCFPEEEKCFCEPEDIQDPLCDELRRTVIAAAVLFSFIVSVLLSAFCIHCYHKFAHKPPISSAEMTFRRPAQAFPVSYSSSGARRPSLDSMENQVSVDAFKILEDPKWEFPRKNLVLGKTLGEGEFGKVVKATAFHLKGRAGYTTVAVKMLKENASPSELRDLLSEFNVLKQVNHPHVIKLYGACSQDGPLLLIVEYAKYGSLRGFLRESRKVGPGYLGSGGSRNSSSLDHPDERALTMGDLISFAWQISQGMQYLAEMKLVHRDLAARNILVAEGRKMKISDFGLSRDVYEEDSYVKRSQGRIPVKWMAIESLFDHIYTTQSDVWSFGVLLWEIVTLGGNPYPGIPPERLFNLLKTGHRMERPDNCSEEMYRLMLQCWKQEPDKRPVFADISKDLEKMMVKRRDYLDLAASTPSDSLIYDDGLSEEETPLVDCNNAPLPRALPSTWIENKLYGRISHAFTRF
T1 sequence (P07949 29-1114 M918T): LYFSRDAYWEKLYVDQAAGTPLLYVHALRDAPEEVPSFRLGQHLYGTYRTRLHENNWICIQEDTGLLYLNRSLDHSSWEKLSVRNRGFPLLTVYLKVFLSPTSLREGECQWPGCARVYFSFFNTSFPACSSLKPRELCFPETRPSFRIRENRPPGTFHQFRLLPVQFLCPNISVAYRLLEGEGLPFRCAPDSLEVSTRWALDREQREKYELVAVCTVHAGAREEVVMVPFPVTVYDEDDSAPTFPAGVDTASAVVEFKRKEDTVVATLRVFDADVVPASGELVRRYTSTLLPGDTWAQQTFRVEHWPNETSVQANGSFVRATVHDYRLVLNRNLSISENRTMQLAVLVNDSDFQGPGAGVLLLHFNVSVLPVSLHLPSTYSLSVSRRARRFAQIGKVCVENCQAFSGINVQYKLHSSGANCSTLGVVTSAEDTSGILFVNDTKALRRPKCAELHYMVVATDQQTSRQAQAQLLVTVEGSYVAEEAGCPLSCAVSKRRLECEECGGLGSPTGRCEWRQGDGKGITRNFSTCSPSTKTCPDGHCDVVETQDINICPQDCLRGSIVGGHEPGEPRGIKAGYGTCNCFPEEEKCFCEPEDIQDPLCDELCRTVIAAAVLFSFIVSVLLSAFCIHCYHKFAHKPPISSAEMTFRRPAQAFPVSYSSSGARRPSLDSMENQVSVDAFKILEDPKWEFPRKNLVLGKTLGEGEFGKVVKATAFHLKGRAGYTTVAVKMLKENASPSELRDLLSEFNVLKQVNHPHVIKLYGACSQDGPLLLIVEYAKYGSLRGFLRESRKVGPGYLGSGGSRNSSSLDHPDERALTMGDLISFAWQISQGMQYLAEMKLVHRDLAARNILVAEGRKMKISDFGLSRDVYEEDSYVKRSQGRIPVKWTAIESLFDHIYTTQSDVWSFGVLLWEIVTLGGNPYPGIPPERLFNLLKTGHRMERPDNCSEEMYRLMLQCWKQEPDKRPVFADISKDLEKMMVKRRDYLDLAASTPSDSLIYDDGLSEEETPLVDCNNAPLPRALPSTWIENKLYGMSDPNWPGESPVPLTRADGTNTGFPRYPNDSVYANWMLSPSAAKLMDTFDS
T3 sequence (P22607 23-806 Y373C): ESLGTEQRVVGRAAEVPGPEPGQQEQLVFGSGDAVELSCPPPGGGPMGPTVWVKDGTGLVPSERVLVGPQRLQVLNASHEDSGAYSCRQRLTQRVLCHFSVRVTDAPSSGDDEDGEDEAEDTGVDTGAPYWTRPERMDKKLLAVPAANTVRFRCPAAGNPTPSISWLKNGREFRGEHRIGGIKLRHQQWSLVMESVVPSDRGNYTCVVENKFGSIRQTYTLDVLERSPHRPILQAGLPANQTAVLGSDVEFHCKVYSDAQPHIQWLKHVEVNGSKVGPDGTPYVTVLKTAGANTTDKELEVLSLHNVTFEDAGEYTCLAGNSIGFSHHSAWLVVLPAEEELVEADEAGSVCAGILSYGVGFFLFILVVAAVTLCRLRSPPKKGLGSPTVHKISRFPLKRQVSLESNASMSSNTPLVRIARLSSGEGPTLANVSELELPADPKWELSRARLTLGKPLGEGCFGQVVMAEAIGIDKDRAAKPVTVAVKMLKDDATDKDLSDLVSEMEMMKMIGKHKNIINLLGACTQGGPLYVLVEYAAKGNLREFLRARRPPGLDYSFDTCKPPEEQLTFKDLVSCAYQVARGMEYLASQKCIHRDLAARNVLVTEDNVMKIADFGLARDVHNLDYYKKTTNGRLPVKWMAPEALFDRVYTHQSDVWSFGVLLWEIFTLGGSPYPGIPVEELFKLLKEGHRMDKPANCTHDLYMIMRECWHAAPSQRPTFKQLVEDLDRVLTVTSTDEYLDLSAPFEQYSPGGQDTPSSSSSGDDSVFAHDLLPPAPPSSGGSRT

COc1cc2c(cc1OC)/C(=C\c1ccc(O)cc1)C(=O)N2 [Cpd 1, (E)-1,3-dihydro-5,6-dimethoxy-3-[(4-hydroxyphenyl)methylene]-2H-indol-2-one]
Tyrosine phosphorylation of Ret receptor [1]: dose-dependent inhibition | Ret receptor expression ([1]; highest concentrations): reduced expression | Ret/MEN2A(C634R) tyrosine phosphorylation ([2]; 2 h of exposure): partially dephosphorylated | Ret/MEN2A(C634R) receptor expression ([2]; longer times than 2 h): reduced expression | Ret/MEN2A(C634R) tyrosine phosphorylation ([2]; longer times than 2 h): complete tyrosine dephosphorylation | FGF-R3 (Y373C) expression [3]: dose-dependent inhibition | FGF-R3 (Y373C) tyrosine phosphorylation [3]: dose-dependent inhibition | Reverting the morphologic phenotype [4]: particularly effective
